{
  "source": "patent US20060021075A1",
  "about": "“Group 1 CD1 transgenic mice and their uses” (priority 2004, published 2006)",
  "test_system": "BM-DCs",
  "assay": "Flow cytometric analysis of CD1a, b, c expression on BM-DCs of hCD1Tg mice",
  "format": "cell-based, mouse",
  "details": "BM-DCs from hCD1Tg mice cultured in GM-CSF and IL-4",
  "data": [
    {"substance": "IFN-γ: cytokine tested for upregulation of CD1 on BM-DCs", "values": [
      {"measurement": "Upregulation of CD1a, b, and c expression on BM-DCs", "value": "cannot be upregulated"}
    ]},
    {"substance": "TNF-α", "values": [
      {"measurement": "Upregulation of CD1a, b, and c expression on BM-DCs", "value": "cannot be upregulated"}
    ]}
  ]
}
